Test system: Genes belonging to other category
Test: DNA chip mRNA expression in yeast, genes belonging to other category (Table 9)
Format: cell-based, Saccharomyces cerevisiae S288C
Summary of the method: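 Whole-genome yeast DNA chip hybridization (65° C., >12 h) of Cy-labeled cDNA from S288C cells exposed 2 h at 25° C. to a sub-lethal toxicant dose in YPD; value is intensity relative to chemical-free control.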

Measured: The level of expressed mRNA in the presence of chemical substance/The level of expressed mRNA in the absence of chemical substance

Na2As [(1)]
1.2: yeast gene YKL008C | yeast gene YKL041W | yeast gene YLR120C | yeast gene YPL089C
1.0: yeast gene YLR356W | yeast gene YMR094W | yeast gene YNL333W | yeast gene YOR157C | yeast gene YOR181W | yeast gene YOR198C | yeast gene YOR261C
1.5: yeast gene YLR250W | yeast gene YNR069C | yeast gene YPL149W
0.5: yeast gene YKL165C
2.1: yeast gene YNL093W
0.8: yeast gene YKL039W | yeast gene YOR117W | yeast gene YOR259C | yeast gene YPR108W
1.1: yeast gene YLR362W | yeast gene YMR226C | yeast gene YNL006W | yeast gene YOR185C | yeast gene YPL109C
1.4: yeast gene YKL013C | yeast gene YKL096W
0.6: yeast gene YMR276W | yeast gene YOR124C
5.5: yeast gene YLR327C
1.3: yeast gene YKL193C | yeast gene YLR136C | yeast gene YNR010W
1.8: yeast gene YOR036W
1.7: yeast gene YLR178C
1.9: yeast gene YMR104C
0.9: yeast gene YKL139W | yeast gene YMR004W | yeast gene YOL013C | yeast gene YOL164W | yeast gene YOR132W | yeast gene YOR288C | yeast gene YOR383C
0.7: yeast gene YLR429W | yeast gene YMR219W | yeast gene YMR275C | yeast gene YNL007C | yeast gene YOR355W | yeast gene YPL154C | yeast gene YPR103W

Source: patent US8192962B2, “Processes for detecting toxic substances” (Daikin Industries, Ltd., priority 2001, dated 2012)
